Data taken from PMC6328046 (Gastroenterology, 2018).

Target: HDAC2 (Homo sapiens, UniProt Q92769)
Experiment: surface plasmon resonance with recombinant HDAC2
Format: binding

Sequence of HDAC2 (Q92769 whole entry): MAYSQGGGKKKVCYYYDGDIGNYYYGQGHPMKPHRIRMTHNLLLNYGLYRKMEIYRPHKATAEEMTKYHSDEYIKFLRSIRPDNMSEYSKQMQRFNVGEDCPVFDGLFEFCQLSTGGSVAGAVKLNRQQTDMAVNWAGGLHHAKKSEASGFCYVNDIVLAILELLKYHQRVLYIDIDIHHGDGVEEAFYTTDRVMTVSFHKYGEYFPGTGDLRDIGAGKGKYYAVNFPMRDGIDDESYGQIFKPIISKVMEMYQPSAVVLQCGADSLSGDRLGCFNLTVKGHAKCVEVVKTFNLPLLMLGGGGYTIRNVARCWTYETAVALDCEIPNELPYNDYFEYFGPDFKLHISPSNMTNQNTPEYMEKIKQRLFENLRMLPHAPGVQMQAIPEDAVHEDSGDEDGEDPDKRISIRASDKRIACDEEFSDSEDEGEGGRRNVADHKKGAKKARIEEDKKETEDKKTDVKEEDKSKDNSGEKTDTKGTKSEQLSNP

Kd: 12.8 µM
SMILES: COc1ccc(Nc2nnc(-c3ccc(C(=O)NO)cc3)o2)cc1 [metavert]
